Data published in US20100249121A1, “USE OF TETRAMIC ACID DERIVATIVES FOR C[…]-TR[…]” (priority 2007, published 2010).

How the values were obtained:
Type in all cases: in vivo
[1] = system: Bean Golden Mosaic Virus (BGMV), virus-transferring vector Bemisia argentifolii; experiment: Example 3: field plots of bush beans treated against the vector, virus infestation scored; details: 72 g of a.i./ha, 200 SC, three applications at 7-day intervals, 16 days after the first treatment, BGMV on bush beans
Description: In three replications, plots of a size of 12 m^2 with bush beans of the cultivar “Carioca” are treated against the virus-transferring vector Bemisia argentifolii. Application is carried out using a pressurized air-operated knapsack sprayer. The active compound example (I-2) (240 SC) in a tank mix with 0.186% a.i. soya oil Natur'L Oleo (OL 930) and the commercial standard imidacloprid (200 SC) are applied at the stated application rates. Three applications are carried out at intervals of in each case 7 days. The water application rate is in each case 300 l/ha.
Evaluation is carried out 16 days after the first treatment by scoring the virus infestation with the Bean Golden Mosaic Virus (BGMV) on the plants.
All 10 plants in the control were infected by the BGMV.

[2] = system: Tomato Spotted Wilt Virus (TSWV); experiment: Example 4: field plots of tomatoes, tank mix versus single actives, virus infection scored; details: 72 g of a.i./ha, SC 200 on its own, four applications at 7-day intervals, 25 days after the treatment
Source text: The expected activity for a given combination of two active compounds can be calculated according to S. R. Colby, Weeds 15 (1967), 20-22 as follows:
If • X is the degree of control, expressed in % of the untreated control, when using the active compound A at an application rate of m g/ha or in a concentration of m ppm, • Y is the degree of control, expressed in % of the untreated control, when using the active compound B at an application rate of n g/ha or in a concentration of n ppm and • E is the degree of control, expressed in % of the untreated control, when using the active compounds A and B at application rates of m and n g/ha or in a concentration of m and n ppm, then
If the actual degree of control is greater than the calculated degree of control, the control of the combination is superadditive, i.e. a synergistic effect is present. In this case, the degree of control actually observed must be greater than the value for the expected kill rate (E) calculated using the formula given above.
After the desired period of time, the control in % is determined. 100% means that no plants have been infected by viruses; 0% means that all plants have been infected by viruses.
In three replications, plots of a size of 7.5 m^2 with tomatoes of the cultivar “Jumbo” are treated against the virus-transferring vector Bemisia argentifolii using a compressed air-operated sprayer. […]

[3] = system: Tomato Yellow Leaf Curl Virus (TYLCV), virus-transferring vector Bemisia argentifolii; experiment: Example 1: field plots of tomatoes treated against the vector, virus infestation scored; details: 72 g of a.i./ha, 200 SC, four applications at 7-day intervals, 25 days after the 4th treatment, TYLCV on tomatoes
Description: In three replications, plots of a size of 7.5 m^2 with tomatoes of the cultivar “Jumbo” are treated against the virus-transferring vector Bemisia argentifolii. Application is carried out using a motor-operated knapsack sprayer. The active compound example (I-2) (240 SC) in a tank mix with 0.186% a.i. soya oil Natur'L Oleo (OL 930) and the commercial standard imidacloprid (200 SC) are applied at the stated application rates. Four applications are carried out at intervals of in each case 7 days using a water application rate of in each case 300 l, 300 l, 500 l and 600 l/ha.
Evaluation is carried out 25 days after the 4th treatment by scoring the virus infestation with the Tomato Yellow Leaf Curl Virus (TYLCV) on the plants.
In the control, 11.7 of 15 plants were infected by the TYLCV.

[4] = system: Tomato Yellow Leaf Curl Virus (TYLCV), virus-transferring vector Bemisia argentifolii; experiment: Example 2: field plots of tomatoes treated against the vector, virus infestation scored; details: 72 g of a.i./ha, 200 SC, three applications at 7-day intervals, 14 days after the 3rd treatment, TYLCV on tomatoes
Description: In three replications, plots of a size of 7.5 m^2 with tomatoes of the cultivar “Jumbo” are treated against the virus-transferring vector Bemisia argentifolii. Application is carried out using a pressurized air-operated knapsack sprayer. The active compound example (I-2) (240 SC) in a tank mix with 0.186% a.i. soya oil Natur'L Oleo (OL 930) and the commercial standard imidacloprid (200 SC) are applied at the stated application rates. Three applications are carried out at intervals of in each case 7 days. The water application rates are 300 l/ha, 400 l/ha and 600 l/ha.
Evaluation is carried out 14 days after the 3rd treatment by scoring the virus infestation with the Tomato Yellow Leaf Curl Virus (TYLCV) on the plants.
All 18 plants in the control were infected by the TYLCV.

SMILES: O=[N+]([O-])/N=C1\NCCN1Cc1ccc(Cl)nc1 [imidacloprid]
- Degree of control according to Abbott (%) 16 d [1]: 60.0%
- Degree of control according to Abbott (%) 25 d [2]: 80%
- Degree of control according to Abbott (%) 25 d [3]: 40.0%
- Degree of control according to Abbott (%) 14 d [4]: 33%
